Test results from US9340590B2 (priority 2011, dated 2016).
Like-named read-outs stand apart in the source and are kept apart here. Positions of bridges follow the written chain, without caps; N, C: chain ends. Non-standard residues stand in square brackets, D forms with d. Residues, ends and D or L forms follow the SMILES beside them. 1Nal = N[C@@H](Cc1cccc2ccccc12)C(=O)O

Tests used:
Assay in all cases: cell-based
hNav1.7 = hNav1.7 (Homo sapiens, UniProt Q15858); format: cell-based; settings: IonWorks Quattro, use-dependent block, read-out: IWQ Use Nav1.7
hNav1.7, sequence (Q15858 whole entry, looked up): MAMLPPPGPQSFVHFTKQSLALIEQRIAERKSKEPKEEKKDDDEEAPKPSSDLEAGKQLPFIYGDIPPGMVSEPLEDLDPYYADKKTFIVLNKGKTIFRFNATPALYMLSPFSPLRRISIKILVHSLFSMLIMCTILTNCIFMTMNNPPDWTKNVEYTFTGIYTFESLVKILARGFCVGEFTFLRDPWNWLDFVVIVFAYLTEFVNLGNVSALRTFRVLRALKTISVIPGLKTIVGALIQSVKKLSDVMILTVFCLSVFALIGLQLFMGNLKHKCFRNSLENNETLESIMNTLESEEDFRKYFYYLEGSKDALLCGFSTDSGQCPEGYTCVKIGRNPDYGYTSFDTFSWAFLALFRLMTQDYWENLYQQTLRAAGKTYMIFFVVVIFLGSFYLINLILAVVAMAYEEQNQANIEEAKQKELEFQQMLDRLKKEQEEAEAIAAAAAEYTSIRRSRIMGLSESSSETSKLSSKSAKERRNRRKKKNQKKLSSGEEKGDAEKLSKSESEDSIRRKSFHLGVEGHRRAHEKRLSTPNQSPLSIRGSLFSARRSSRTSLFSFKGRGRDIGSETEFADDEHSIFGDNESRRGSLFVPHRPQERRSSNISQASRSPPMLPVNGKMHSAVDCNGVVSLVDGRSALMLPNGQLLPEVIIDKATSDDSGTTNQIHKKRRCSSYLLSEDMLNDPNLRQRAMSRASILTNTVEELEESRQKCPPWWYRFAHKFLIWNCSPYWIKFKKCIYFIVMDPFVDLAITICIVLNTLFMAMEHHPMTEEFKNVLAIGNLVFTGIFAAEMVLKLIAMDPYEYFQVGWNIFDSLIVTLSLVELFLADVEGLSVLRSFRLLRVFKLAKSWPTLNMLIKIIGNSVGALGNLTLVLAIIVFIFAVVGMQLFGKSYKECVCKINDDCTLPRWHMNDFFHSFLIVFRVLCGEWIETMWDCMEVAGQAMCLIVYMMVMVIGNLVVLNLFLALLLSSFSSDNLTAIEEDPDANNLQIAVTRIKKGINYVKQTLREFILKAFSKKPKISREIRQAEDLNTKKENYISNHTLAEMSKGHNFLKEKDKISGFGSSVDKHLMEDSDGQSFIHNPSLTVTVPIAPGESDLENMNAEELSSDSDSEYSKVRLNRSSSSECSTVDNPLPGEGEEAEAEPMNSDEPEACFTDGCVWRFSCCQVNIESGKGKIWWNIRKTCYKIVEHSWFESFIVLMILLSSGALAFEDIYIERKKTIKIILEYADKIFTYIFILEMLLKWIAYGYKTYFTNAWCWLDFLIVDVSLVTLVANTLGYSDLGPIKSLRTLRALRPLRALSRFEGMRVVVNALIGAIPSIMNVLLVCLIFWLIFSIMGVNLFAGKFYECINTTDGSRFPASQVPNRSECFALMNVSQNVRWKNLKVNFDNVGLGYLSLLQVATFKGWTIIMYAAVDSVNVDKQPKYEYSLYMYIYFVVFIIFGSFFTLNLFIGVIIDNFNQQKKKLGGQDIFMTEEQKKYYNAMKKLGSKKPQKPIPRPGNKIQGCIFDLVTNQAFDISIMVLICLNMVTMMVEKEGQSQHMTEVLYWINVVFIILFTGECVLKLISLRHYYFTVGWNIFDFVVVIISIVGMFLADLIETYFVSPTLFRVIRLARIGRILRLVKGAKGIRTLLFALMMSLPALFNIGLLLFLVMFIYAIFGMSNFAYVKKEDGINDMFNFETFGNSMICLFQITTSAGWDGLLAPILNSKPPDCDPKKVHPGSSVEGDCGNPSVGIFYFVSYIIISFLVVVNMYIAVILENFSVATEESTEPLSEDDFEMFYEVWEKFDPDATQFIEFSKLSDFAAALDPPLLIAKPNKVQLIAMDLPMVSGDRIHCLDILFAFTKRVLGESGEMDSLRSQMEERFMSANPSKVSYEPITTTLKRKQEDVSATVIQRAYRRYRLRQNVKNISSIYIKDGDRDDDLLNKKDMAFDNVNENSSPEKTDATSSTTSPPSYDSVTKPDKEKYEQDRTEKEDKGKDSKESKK

hNav1.5 = hNav1.5 (Homo sapiens, UniProt Q14524); settings: IonWorks Quattro, use-dependent block, read-out: IWQ Use Nav1.5
hNav1.3 = hNav1.3 (Homo sapiens, UniProt Q9NY46); settings: IonWorks Quattro, use-dependent block, read-out: IWQ Use Nav1.3
hNav1.3, sequence (Q9NY46 whole entry, looked up): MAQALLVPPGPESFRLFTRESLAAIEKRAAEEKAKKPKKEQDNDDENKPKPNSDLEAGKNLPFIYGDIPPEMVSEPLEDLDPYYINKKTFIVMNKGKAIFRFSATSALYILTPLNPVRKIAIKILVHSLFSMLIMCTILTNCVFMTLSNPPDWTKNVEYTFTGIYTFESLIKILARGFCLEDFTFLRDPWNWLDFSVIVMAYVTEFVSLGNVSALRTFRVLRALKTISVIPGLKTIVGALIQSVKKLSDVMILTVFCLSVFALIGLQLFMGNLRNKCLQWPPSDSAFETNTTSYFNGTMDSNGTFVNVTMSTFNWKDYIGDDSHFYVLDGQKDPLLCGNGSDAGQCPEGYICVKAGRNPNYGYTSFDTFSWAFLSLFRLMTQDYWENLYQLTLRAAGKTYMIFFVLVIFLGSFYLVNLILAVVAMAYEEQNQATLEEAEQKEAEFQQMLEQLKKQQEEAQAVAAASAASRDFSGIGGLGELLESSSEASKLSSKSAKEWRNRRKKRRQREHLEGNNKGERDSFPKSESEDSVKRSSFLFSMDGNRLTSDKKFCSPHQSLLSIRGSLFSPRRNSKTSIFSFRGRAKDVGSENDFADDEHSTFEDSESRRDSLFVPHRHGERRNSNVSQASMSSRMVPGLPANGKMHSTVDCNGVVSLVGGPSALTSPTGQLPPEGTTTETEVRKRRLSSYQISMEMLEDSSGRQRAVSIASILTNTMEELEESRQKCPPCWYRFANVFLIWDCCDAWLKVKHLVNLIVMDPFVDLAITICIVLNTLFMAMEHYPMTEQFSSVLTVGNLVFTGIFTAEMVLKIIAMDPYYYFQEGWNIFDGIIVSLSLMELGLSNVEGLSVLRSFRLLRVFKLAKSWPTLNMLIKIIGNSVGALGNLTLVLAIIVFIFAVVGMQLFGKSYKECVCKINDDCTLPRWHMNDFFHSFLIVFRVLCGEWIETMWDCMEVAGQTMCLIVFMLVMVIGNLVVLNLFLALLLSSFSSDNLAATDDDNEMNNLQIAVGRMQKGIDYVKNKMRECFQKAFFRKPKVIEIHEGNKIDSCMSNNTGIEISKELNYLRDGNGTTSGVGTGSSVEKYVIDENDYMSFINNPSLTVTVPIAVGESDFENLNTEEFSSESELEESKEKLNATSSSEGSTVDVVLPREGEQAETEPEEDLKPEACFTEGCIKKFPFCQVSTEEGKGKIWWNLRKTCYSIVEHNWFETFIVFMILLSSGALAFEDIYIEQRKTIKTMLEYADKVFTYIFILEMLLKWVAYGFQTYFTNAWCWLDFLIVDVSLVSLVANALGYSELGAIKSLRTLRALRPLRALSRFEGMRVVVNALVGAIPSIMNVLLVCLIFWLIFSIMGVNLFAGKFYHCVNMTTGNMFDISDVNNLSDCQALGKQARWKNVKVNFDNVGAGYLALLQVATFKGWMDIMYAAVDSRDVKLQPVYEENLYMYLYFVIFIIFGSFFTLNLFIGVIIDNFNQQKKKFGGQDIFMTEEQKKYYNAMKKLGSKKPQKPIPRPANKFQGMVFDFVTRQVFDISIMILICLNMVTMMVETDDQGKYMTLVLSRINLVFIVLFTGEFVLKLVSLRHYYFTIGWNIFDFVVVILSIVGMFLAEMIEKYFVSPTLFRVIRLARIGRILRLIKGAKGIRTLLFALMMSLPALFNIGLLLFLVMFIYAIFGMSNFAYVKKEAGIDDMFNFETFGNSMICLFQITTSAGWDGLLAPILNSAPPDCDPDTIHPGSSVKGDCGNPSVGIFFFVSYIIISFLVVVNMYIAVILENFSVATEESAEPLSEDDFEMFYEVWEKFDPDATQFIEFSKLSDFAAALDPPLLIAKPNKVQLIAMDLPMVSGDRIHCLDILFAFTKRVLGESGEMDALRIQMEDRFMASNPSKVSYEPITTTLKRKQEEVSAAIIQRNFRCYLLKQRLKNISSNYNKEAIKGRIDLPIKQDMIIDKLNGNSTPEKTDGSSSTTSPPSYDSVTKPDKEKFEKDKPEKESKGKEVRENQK

Compound | IC50 (hNav1.7; hNav1.7) | IC50 (hNav1.5; hNav1.5) | IC50 (hNav1.3; hNav1.3) | IC50 (hNav1.7) | IC50 (hNav1.5) | IC50 (hNav1.3)
CC[C@H](C)[C@@H]1NC(=O)[C@@H]2CSSC[C@@H]3NC(=O)[C@H](C(C)C)NC(=O)[C@H](CC(C)C)NC(=O)[C@H](CC(N)=O)NC(=O)[C@@H]4CCCN4C(=O)[C@H](CCCNC(=N)N)NC(=O)[C@H](CSSC[C@H](NC(=O)[C@@H](N)CC(=O)O)C(=O)N[C@@H](CC(C)C)C(=O)NCC(=O)N[C@@H](Cc4ccccc4)C(=O)N[C@@H](CCSC)C(=O)N[C@@H](CCCNC(=N)N)C(=O)N[C@@H](CCCCN)C(=O)N2)NC(=O)[C@H](CSSC[C@@H](C(=O)N[C@@H](CCCCN)C(=O)N[C@@H](Cc2ccc(O)cc2)C(=O)N[C@@H](Cc2cccc4ccccc24)C(=O)N[C@@H](Cc2ccccc2)C(N)=O)NC(=O)[C@H](Cc2c[nH]c4ccccc24)NC(=O)[C@H](CCCCN)NC(=O)[C@H](Cc2c[nH]cn2)NC(=O)[C@H](CC(C)C)NC(=O)[C@H](CCCNC(=N)N)NC(=O)[C@H](CO)NC3=O)NC(=O)[C@H](CCCCN)NC(=O)[C@H](CC(=O)O)NC(=O)[C@H](CC(N)=O)NC(=O)[C@H](CC(=O)O)NC(=O)[C@@H]2CCCN2C1=O [compound 463] (H-DCLGFMRKCIPDNDKCCRPNLVCSRLHKWCKY[1Nal]F-NH2; disulfide 2-17, 9-23, 16-30) | 130 nM | > 5 µM | 180 nM |  |  | 
CSCC[C@@H]1NC(=O)[C@H](Cc2ccccc2)NC(=O)CNC(=O)[C@H](CC(C)C)NC(=O)[C@@H](NC(=O)[C@H](CC(=O)O)NC(=O)[C@@H](N)Cc2c[nH]c3ccccc23)CSSC[C@@H]2NC(=O)[C@@H]3CSSC[C@@H](C(=O)N[C@@H](CCCCN)C(=O)N[C@@H](Cc4ccc(O)cc4)C(=O)N[C@H](C(=O)N[C@@H](Cc4ccccc4)C(N)=O)C(C)C)NC(=O)[C@H](Cc4c[nH]c5ccccc45)NC(=O)[C@H](CCCCN)NC(=O)[C@H](Cc4c[nH]cn4)NC(=O)[C@H]([C@@H](C)O)NC(=O)[C@H](CCCNC(=N)N)NC(=O)[C@H](CO)NC(=O)[C@H](CSSC[C@H](NC(=O)[C@H](CCCCN)NC(=O)[C@H](CCCNC(=N)N)NC1=O)C(=O)N[C@@H](Cc1cccc4ccccc14)C(=O)N1CCC[C@H]1C(=O)N[C@@H](CC(=O)O)C(=O)N[C@@H](CC(N)=O)C(=O)N[C@@H](CC(=O)O)C(=O)N[C@@H](CCCCN)C(=O)N3)NC(=O)[C@H](C(C)C)NC(=O)[C@H](CC(C)C)NC(=O)[C@H](CC(N)=O)NC(=O)[C@@H]1CCCN1C(=O)[C@H](CCCNC(=N)N)NC2=O [compound 464] | 200 nM | > 5 µM | 220 nM |  |  | 
CC[C@H](C)[C@@H]1NC(=O)[C@@H]2CSSC[C@@H]3NC(=O)[C@H](C(C)C)NC(=O)[C@H](CC(C)C)NC(=O)[C@H](CC(N)=O)NC(=O)[C@@H]4CCCN4C(=O)[C@H](CCCNC(=N)N)NC(=O)[C@H](CSSC[C@H](NC(=O)[C@@H](N)CC(=O)O)C(=O)N[C@@H](CC(C)C)C(=O)NCC(=O)N[C@@H](Cc4ccccc4)C(=O)N[C@@H](Cc4ccccc4)C(=O)N[C@@H](CCCNC(=N)N)C(=O)N[C@@H](CCCCN)C(=O)N2)NC(=O)[C@H](CSSC[C@@H](C(=O)N[C@@H](CCCCN)C(=O)N[C@@H](Cc2ccc(O)cc2)C(=O)N[C@H](C(=O)N[C@@H](Cc2cccc4ccccc24)C(N)=O)C(C)C)NC(=O)[C@H](Cc2c[nH]c4ccccc24)NC(=O)[C@H](CCCCN)NC(=O)[C@H](Cc2c[nH]cn2)NC(=O)[C@H]([C@@H](C)O)NC(=O)[C@H](CCCNC(=N)N)NC(=O)[C@H](CO)NC3=O)NC(=O)[C@H](CCCCN)NC(=O)[C@H](CC(=O)O)NC(=O)[C@H](CC(N)=O)NC(=O)[C@H](CC(=O)O)NC(=O)[C@@H]2CCCN2C1=O [compound 561] (H-DCLGFFRKCIPDNDKCCRPNLVCSRTHKWCKYV[1Nal]-NH2; disulfide 2-17, 9-23, 16-30) |  |  |  | 11 nM | 2.2 µM | 7 nM
CC[C@H](C)[C@@H]1NC(=O)[C@@H]2CSSC[C@@H]3NC(=O)[C@H](C(C)C)NC(=O)[C@H](CC(C)C)NC(=O)[C@H](CC(N)=O)NC(=O)[C@@H]4CCCN4C(=O)[C@H](CCCNC(=N)N)NC(=O)[C@H](CSSC[C@H](NC(=O)[C@@H](N)CC(=O)O)C(=O)N[C@@H](CC(C)C)C(=O)NCC(=O)N[C@@H](Cc4cccnc4)C(=O)N[C@@H](CCSC)C(=O)N[C@@H](CCCNC(=N)N)C(=O)N[C@@H](CCCCN)C(=O)N2)NC(=O)[C@H](CSSC[C@@H](C(=O)N[C@@H](CCCCN)C(=O)N[C@@H](Cc2ccc(O)cc2)C(=O)N[C@H](C(=O)N[C@@H](Cc2ccccc2)C(N)=O)C(C)C)NC(=O)[C@H](Cc2c[nH]c4ccccc24)NC(=O)[C@H](CCCCN)NC(=O)[C@H](Cc2c[nH]cn2)NC(=O)[C@H]([C@@H](C)O)NC(=O)[C@H](CCCNC(=N)N)NC(=O)[C@H](CO)NC3=O)NC(=O)[C@H](CCCCN)NC(=O)[C@H](CC(=O)O)NC(=O)[C@H](CC(N)=O)NC(=O)[C@H](CC(=O)O)NC(=O)[C@@H]2CCCN2C1=O [compound 596] | 2600 nM | > 5 µM | > 5000 nM |  |  | 
CC[C@H](C)[C@@H]1NC(=O)[C@@H]2CSSC[C@@H]3NC(=O)[C@H](C(C)C)NC(=O)[C@H](CC(C)C)NC(=O)[C@H](CC(N)=O)NC(=O)[C@@H]4CCCN4C(=O)[C@H](CCCNC(=N)N)NC(=O)[C@H](CSSC[C@H](NC(=O)[C@@H](N)CC(=O)O)C(=O)N[C@@H](CC(C)C)C(=O)NCC(=O)N[C@@H](C)C(=O)N[C@@H](Cc4ccccc4)C(=O)N[C@@H](CCCNC(=N)N)C(=O)N[C@@H](CCCCN)C(=O)N2)NC(=O)[C@H](CSSC[C@@H](C(=O)N[C@@H](CCCCN)C(=O)N[C@@H](Cc2ccc(O)cc2)C(=O)N[C@H](C(=O)N[C@@H](Cc2ccccc2)C(=O)O)C(C)C)NC(=O)[C@H](Cc2c[nH]c4ccccc24)NC(=O)[C@H](CCCNC(=N)N)NC(=O)[C@H](Cc2c[nH]cn2)NC(=O)[C@H]([C@@H](C)O)NC(=O)[C@H](CCCNC(=N)N)NC(=O)[C@H](CO)NC3=O)NC(=O)[C@H](CCCCN)NC(=O)[C@H](CC(=O)O)NC(=O)[C@H](Cc2ccc(O)cc2)NC(=O)[C@H](CC(=O)O)NC(=O)[C@@H]2CCCN2C1=O [compound 597] (H-DCLGAFRKCIPDYDKCCRPNLVCSRTHRWCKYVF-OH; disulfide 2-17, 9-23, 16-30) | > 5000 nM | 7.35 µM | 1100 nM |  |  | 
CC[C@H](C)[C@@H]1NC(=O)[C@@H]2CSSC[C@@H]3NC(=O)[C@H](C(C)C)NC(=O)[C@H](CC(C)C)NC(=O)[C@H](CC(N)=O)NC(=O)[C@@H]4CCCN4C(=O)[C@H](CCCNC(=N)N)NC(=O)[C@H](CSSC[C@H](NC(=O)[C@@H](N)CC(=O)O)C(=O)N[C@@H](CC(C)C)C(=O)NCC(=O)N[C@@H](C)C(=O)N[C@@H](CC(C)C)C(=O)N[C@@H](CCCNC(=N)N)C(=O)N[C@@H](CCCCN)C(=O)N2)NC(=O)[C@H](CSSC[C@@H](C(=O)N[C@@H](CCCCN)C(=O)N[C@@H](Cc2ccc(O)cc2)C(=O)N[C@H](C(=O)N[C@@H](Cc2ccccc2)C(=O)O)C(C)C)NC(=O)[C@H](Cc2c[nH]c4ccccc24)NC(=O)CNC(=O)[C@H](Cc2c[nH]cn2)NC(=O)[C@H]([C@@H](C)O)NC(=O)[C@H](CCCNC(=N)N)NC(=O)[C@H](CO)NC3=O)NC(=O)[C@H](CCCCN)NC(=O)[C@H](CC(=O)O)NC(=O)[C@H](CC(N)=O)NC(=O)[C@H](CC(=O)O)NC(=O)[C@@H]2CCCN2C1=O [compound 598] (H-DCLGALRKCIPDNDKCCRPNLVCSRTHGWCKYVF-OH; disulfide 2-17, 9-23, 16-30) | > 5000 nM | 12.6 µM | 4000 nM |  |  | 
CC[C@H](C)[C@@H]1NC(=O)[C@@H]2CSSC[C@@H]3NC(=O)[C@H](C(C)C)NC(=O)[C@H](CC(C)C)NC(=O)[C@H](CC(N)=O)NC(=O)[C@@H]4CCCN4C(=O)[C@H](CCCNC(=N)N)NC(=O)[C@H](CSSC[C@H](NC(=O)[C@@H](N)CC(=O)O)C(=O)N[C@@H](CC(C)C)C(=O)NCC(=O)N[C@@H](C)C(=O)N[C@@H](CC(C)C)C(=O)N[C@@H](CCCNC(=N)N)C(=O)N[C@@H](CCCCN)C(=O)N2)NC(=O)[C@H](CSSC[C@@H](C(=O)N[C@@H](CCCCN)C(=O)N[C@@H](Cc2ccc(O)cc2)C(=O)N[C@H](C(=O)N[C@@H](Cc2ccccc2)C(=O)O)C(C)C)NC(=O)[C@H](Cc2c[nH]c4ccccc24)NC(=O)[C@H](Cc2c[nH]cn2)NC(=O)[C@H](Cc2c[nH]cn2)NC(=O)[C@H]([C@@H](C)O)NC(=O)[C@H](CCCNC(=N)N)NC(=O)[C@H](CO)NC3=O)NC(=O)[C@H](CCCCN)NC(=O)[C@H](CC(=O)O)NC(=O)[C@H](CC(N)=O)NC(=O)[C@H](CC(=O)O)NC(=O)[C@@H]2CCCN2C1=O [compound 599] (H-DCLGALRKCIPDNDKCCRPNLVCSRTHHWCKYVF-OH; disulfide 2-17, 9-23, 16-30) | > 5000 nM | 12.7 µM | 2200 nM |  |  | 
CC[C@H](C)[C@@H]1NC(=O)[C@@H]2CSSC[C@@H]3NC(=O)[C@H](C(C)C)NC(=O)[C@H](CC(C)C)NC(=O)[C@H](CC(N)=O)NC(=O)[C@@H]4CCCN4C(=O)[C@H](CCCNC(=N)N)NC(=O)[C@H](CSSC[C@H](NC(=O)[C@@H](N)CC(=O)O)C(=O)N[C@@H](CC(C)C)C(=O)NCC(=O)N[C@@H](C)C(=O)N[C@@H](CC(C)C)C(=O)N[C@@H](CCCNC(=N)N)C(=O)N[C@@H](CCCCN)C(=O)N2)NC(=O)[C@H](CSSC[C@@H](C(=O)N[C@@H](CCCCN)C(=O)N[C@@H](Cc2ccc(O)cc2)C(=O)N[C@H](C(=O)N[C@@H](Cc2ccccc2)C(=O)O)C(C)C)NC(=O)[C@H](Cc2c[nH]c4ccccc24)NC(=O)[C@H](CCCCN)NC(=O)[C@H](Cc2c[nH]cn2)NC(=O)[C@H]([C@@H](C)O)NC(=O)[C@H](CCCNC(=N)N)NC(=O)[C@H](CO)NC3=O)NC(=O)[C@H](CCCCN)NC(=O)[C@H](CC(=O)O)NC(=O)[C@H](CC(N)=O)NC(=O)[C@H](CC(=O)O)NC(=O)[C@@H]2CCCN2C1=O [compound 600] (H-DCLGALRKCIPDNDKCCRPNLVCSRTHKWCKYVF-OH; disulfide 2-17, 9-23, 16-30) | > 5000 nM | 12.6 µM | 3100 nM |  |  | 
